Measured values taken from patent US12702715B2, “Targeted RNA degradation allows precision repurposing of protein-targeted small molecule medicines to RNA” (University of Florida Research Foundation, Incorporated, priority 2020, dated 2026).

Molecular target: pre-miR-21's A-bulge (Dicer processing site in pre-miR-21)
Assay: Fluorescent binding affinity measurement, A-bulge RNA
Parameters: species or system human
Method: Fluorescent Binding Affinity Measurements. Binding assays were completed as previously described^5. Briefly, the RNA of interest was folded as described in the “Solution-based Dye Displacement Assay” section, including the addition of BSA. Then, 1 was added to the RNA solution to a final concentration of 0.5 μM. The solution was serial diluted with 1× AB2 containing 0.5 μM of 1. The solutions were incubated at room temperature in the dark for 30 min. The solutions were then transferred to a black 384-well plate. Fluorescence intensity was measured using a Tecan plate reader (Gain: 100, Integration time: 40 μs) with excitation wavelength of and emission wavelength of 355 nm and 535 nm, respectively. The change in fluorescence was normalized to samples lacking RNA. Binding affinity was calculated by using Equation 2, as previously described^5. I=I0+0.5Δε{([FL]0+[RNA]0+Kd)−(([FL]0+[RNA]0+Kd)^2−4[FL]0[RNA]0)^0.5} (2) where I and I0 are the measured fluorescence intensity of compound with or without RNA, respectively, Δε is the difference between the fluorescence intensity with infinite concentration of RNA or without RNA, [FL]0 and [RNA]0 are the concentrations of small molecule and RNA, respectively, and Kd is the dissociation constant.

CN1CCN(c2ccc3nc(-c4c(N)c5c(F)cccc5[nH]c4=O)[nH]c3c2)CC1 [Compound 1, Dovitinib, reference compound]
Kd: 3000 nM
